Each compound was assayed against KRAS (aa 1-169) G12C, C51S, C80L, C118S (Homo sapiens (Human), UniProt P01116, C118S/C51S/C80L/G12C) (assay: KRAS G12C SOS1-mediated nucleotide exchange / cRaf RBD binding FRET assay (Biochemical Functional Assay)). Details: GDP-loaded KRAS G12C pre-incubated with compound at 24° C. for 3 hrs; SOS1, GTPγS, GST-cRaf RBD; inhibition of nucleotide exchange.
Chain of KRAS (aa 1-169) G12C, C51S, C80L, C118S (P01116 other isoform, or with tags, fused parts or gaps G12C/C51S/C80L/C118S): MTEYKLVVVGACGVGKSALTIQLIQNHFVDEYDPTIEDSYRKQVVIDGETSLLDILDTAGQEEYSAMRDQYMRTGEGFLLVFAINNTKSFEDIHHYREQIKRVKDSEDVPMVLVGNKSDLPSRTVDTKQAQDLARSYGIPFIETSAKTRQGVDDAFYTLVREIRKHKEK
Protocol: The KRAS ([…]) G12C, C51S, C80L, C118S with a His-tag was expressed, purified and loaded with GDP in house. All protein and substrate solutions were prepared in assay buffer containing 25 mM HEPES pH7.5, 10 mM MgCl2, and 0.01% Triton X-100. Purified GDP-loaded KRAS (aa 1-169) G12C, C51S, C80L, C118S protein was pre-incubated with a serially diluted compound at 24° C. for 3 hrs. Purified SOS1 (aa 564-1049) protein, GTPYS (Sigma) and GST-cRaf RBD (aa 1-149) were then added to each well and incubated at 24° C. for additional 3 hrs. […] Following the incubation, Mab Anti-6HIS-Tb cryptate (Cisbio) and Mab Anti GST-XL665 (Cisbio) were added and further incubated at 24° C. for 3 hrs. The binding interaction between active GTPγS KRAS G12C and GST-cRaf RBD brings the Tb and XL665 into close proximity enabling an increased FRET signal (Ex337 nm, Em665 nm/620 nm). The inhibition percentage of nucleotide exchange reaction in presence of increasing concentrations of compounds was calculated based on the ratio of fluorescence at 665 nm to that at 620 nm detected on a BMG PHERAstar FSX instrument. The IC50 value of each compound was calculated from fitting the data to the four-parameter logistic model by Dotmatics.
In the case of `C=CC(=O)N1CCN(c2nc(OC[C@@H]3CCCN3C)nc3c(Cc4cc(O)cc5ccccc45)cn(C)c23)C[C@@H]1CC#N` [Compound B1, 2-((S)-1-acryloyl-4-(7-((3-hydroxynaphthalen-1-yl)methyl)-5-methyl-2-(((S)-1-methylpyrrolidin-2-yl)methoxy)-5H-pyrrolo[3,2-d]pyrimidin-4-yl)piperazin-2-yl)acetonitrile], the IC50 is reported as 6.2 nM.
Work on `C=CC(=O)N1CCN(c2nc(OC[C@@H]3CCCN3C)nc3c(Cc4cc(O)cc5ccccc45)cn(CC)c23)C[C@@H]1CC#N` [Compound B2, 2-((S)-1-acryloyl-4-(5-ethyl-7-((3-hydroxynaphthalen-1-yl)methyl)-2-(((S)-1-methylpyrrolidin-2-yl)methoxy)-5H-pyrrolo[3,2-d]pyrimidin-4-yl)piperazin-2-yl)acetonitrile] yielded an IC50 of 13 nM.
`C=CC(=O)N1CCN(c2nc(OC[C@@H]3C[C@@H](F)CN3C)nc3c(Cc4cc(O)cc5ccccc45)cn(C)c23)C[C@@H]1CC#N` [Compound B3, 2-((S)-1-acryloyl-4-(2-(((2S,4R)-4-fluoro-1-methylpyrrolidin-2-yl)methoxy)-7-((3-hydroxynaphthalen-1-yl)methyl)-5-methyl-5H-pyrrolo[3,2-d]pyrimidin-4-yl)piperazin-2-yl)acetonitrile] gave an IC50 of 20.3 nM.
In the case of `C=CC(=O)N1CCN(c2nc(OC[C@@H]3CCCN3C)nc3c(Cc4cc(O)cc5ccccc45)cn(C)c23)CC1` [Compound B4, (S)-1-(4-(7-((3-hydroxynaphthalen-1-yl)methyl)-5-methyl-2-((1-methylpyrrolidin-2-yl)methoxy)-5H-pyrrolo[3,2-d]pyrimidin-4-yl)piperazin-1-yl)prop-2-en-1-one], the IC50 is reported as 329 nM.
For `C=CC(=O)N1CCN(c2nc(OC[C@@H]3CCCN3C)nc3c(Cc4c(C(F)(F)F)ccc5[nH]ncc45)c[nH]c23)C[C@@H]1CC#N` [Compound B5, 2-((S)-1-acryloyl-4-(2-(((S)-1-methylpyrrolidin-2-yl)methoxy)-7-((5-(trifluoromethyl)-1H-indazol-4-yl)methyl)-5H-pyrrolo[3,2-d]pyrimidin-4-yl)piperazin-2-yl)acetonitrile], the IC50 was 64.1 nM.
With `C=C(F)C(=O)N1CCN(c2nc(OC[C@@H]3CCCN3C)nc3c(Cc4c(Cl)c(F)cc5[nH]ncc45)c[nH]c23)C[C@@H]1CC#N` [Compound B6, 2-((S)-4-(7-((5-chloro-6-fluoro-1H-indazol-4-yl)methyl)-2-(((S)-1-methylpyrrolidin-2-yl)methoxy)-5H-pyrrolo[3,2-d]pyrimidin-4-yl)-1-(2-fluoroacryloyl)piperazin-2-yl)acetonitrile] the IC50 was 639 nM.
